# Assay: Concentration required for 50% inhibition of growth of AA8 cells following 4 hr drug exposure
# Format: functional, cell-based
# Details: Cricetulus griseus, CHO-AA8, 4 h
row,Compound,IC50 [nM]
1,CNc1cc2c(c3ccccc13)C(CCl)CN2C(=O)c1cc2cc(OC)c(OC)c(OC)c2[nH]1 (stereo not drawn),0.17
2,COc1cc2cc(C(=O)N3CC(CCl)c4c3cc([N+](=O)[O-])c3ccccc43)[nH]c2c(OC)c1OC (stereo not drawn),1600
3,COc1cc2cc(C(=O)N3CC(CCl)c4ccc([N+](=O)[O-])cc43)[nH]c2c(OC)c1OC (stereo not drawn),> 40000
4,COc1cc2cc(C(=O)N3CC(CCl)c4ccc(N)cc43)[nH]c2c(OC)c1OC (stereo not drawn),320
5,CNc1ccc2c(c1)N(C(=O)c1cc3cc(OC)c(OC)c(OC)c3[nH]1)CC2CCl (stereo not drawn),220
6,COc1cc2cc(C(=O)N3CC(CCl)c4c3cc(N)c3ccccc43)[nH]c2c(OC)c1OC (stereo not drawn),0.43
7,COc1cc2cc(C(=O)N3CC(CCl)c4ccc(N(C)C)cc43)[nH]c2c(OC)c1OC (stereo not drawn),280
8,COc1cc2cc(C(=O)N3CC(CCl)c4c3cc(N(C)C)c3ccccc43)[nH]c2c(OC)c1OC (stereo not drawn),5.6

# Source: ChEMBL document CHEMBL1130451, “Synthesis and cytotoxicity of amino analogues of the potent DNA alkylating agent seco-CBI-TMI” (Bioorg Med Chem Lett, 1997)
